Reference: US7557116B2, “Substance which exhibits antiviral and antibacterial activity and is based on derivatives of 2,8-dithioxo-1H-pyrano[2,3d 6,5-d′]dipyrimidyne and 10-aza-analogue thereof” (priority 2003, dated 2009)
Read-outs that look alike come from different tables or passages of the source. Marks after values point to notes of the source that are not given here.

Tests used:
Assay type in all cases: cell-based
Herpes virus of type I = test: Protection of Vero cells from Herpes virus of type I; conditions: for Number of cells: number of cells in 100 fields
[1] = test system: Human Immunodeficiency Virus Type 1; test: Anti-HIV activity: protection of MT4 T-lymphoblastoid cells (IFA)
Experimental: (§1) Activity against the Human immunodeficiency Virus (HIV) was also determined and, more specifically, the compounds antiviral effectiveness in protecting the T-lymphoblastoid cells MT4 from being infected by the virus-containing liquid of HTHIV27 cultures. The cells infected by the virus were analyzed according to the following methods: (1) An indirect immunofluorescence (IFA) with a polyclonal anti-serum was received from an HIV Infected human (the antibody titer in the IFA was 1:1000000) and, (2) A competitive IFA was utilized with monoclonal antibodies (MonAb) to p24 HIV and a polyclonal substrate. A solution of 1:540 was used in the tests. Azidothymidin (AZT) was used as the control.
The results documented in the table shown in TABLE 6 evidence that the compounds tested inhibit the reproduction of the Human Immunodeficiency Virus Type 1.

[2] = test system: Human Immunodeficiency Virus; test: Anti-HIV activity alone and in combination with azidothymidin in MT4 cells
Experimental: as §1, with “[…] The methods utilized to analyze the compounds effectiveness were the same” for “Azidothymidin (AZT) was used”, “foregoing methods.” for “control.”

[3] = test system: Chlamydia trachomatis D323; test: Protection of cell culture from Chlamydia trachomatis (immunofluorescence, cytoplasmatic inclusions)
Description: The antiviral activity of the claimed compounds were also all tested against the Chlemydia trachomatis. The effects of the claimed compounds on the Chlamydia trachomatis are charted in TABLE 4. A relative strain of Chlamydia trachomatis D323 was used to test the claimed compounds. The strain, derived from a patient with Chlamydia urethritis, comprised a morphology and a physiological activity characteristic of and representative of that type. An infection dose of Chlamydia having a concentration of 1/10^6 cells/ml was introduced into a cell culture. Immunofluorescence (MicroTrack Chlamydia trachomatis Direct Specimen Test) was conducted to determine the significance of the chlamydial cytoplasmatic inclusions (CPI). A CylaMonoScreen was conducted to obtain the chlamydia antigens. The monolayer state and the number of cells with CPI were compared to the control to determine the effects the claimed compounds have on the chlamydia. The number of unchanged cells in 100 visual fields were counted utilizing a special net on a microscopic eyepiece.

Influenza virus A = test system: Influenza virus A
Influenza virus B = test system: Influenza virus B
[4] = Influenza virus A, 48 hours at 33-34 C, ineffective when IN less than 1.0
[5] = Influenza virus B, 72 hours at 33-34 C, ineffective when IN less than 1.0

| Compound | percentage of protection of cells from virus (Herpes virus of type I; compound 10 mg/l) | percentage of protection of cells from virus (Herpes virus of type I; compound 50 mg/l) [%] | percentage of protection of cells from virus (Herpes virus of type I; compound 100 mg/l) [%] | Number of cells (Herpes virus of type I; compound 10 mg/l) | Number of cells (Herpes virus of type I; compound 50 mg/l) | Number of cells (Herpes virus of type I; compound 100 mg/l) | Level of inhibition of virus reproduction ([1]; 5 mg/l) [%] | Level of inhibition of virus reproduction ([1]; 50 mg/l) [%] | Level of inhibition of virus reproduction ([1]; 100 mg/l) [%] | Level of inhibition of virus reproduction ([2]; 0.05 mg/l) [%] | Level of inhibition of virus reproduction ([2]; 5.0 mg/l) [%] | Percentage of cells' defense from C. trachomatis ([3]; compound 30 mg/l) [%] | Percentage of cells' defense from C. trachomatis ([3]; compound 100 mg/l) [%] | Index of neutralization (Influenza virus A; [4]) | Index of neutralization (Influenza virus B; [5]) | Index of neutralization (Influenza virus A) | Index of neutralization (Influenza virus B) |
| --- | --- | --- | --- | --- | --- | --- | --- | --- | --- | --- | --- | --- | --- | --- | --- | --- | --- |
| 4-chlorine-6-hydroxi-5-aryl-5,9-dihydro-1H-pyrano[2,3d: 6,5-d′]dipyrimidine-2-8-dition [Iib] | 70% | 90 | 100 | 8400 | 10800 | 12000 |  |  |  |  |  |  |  |  |  |  |  |
| Cc1cn([C@H]2C[C@H](N=[N+]=[N-])[C@@H](CO)O2)c(=O)[nH]c1=O [AZT, Azidothymidin, reference compound] |  |  |  |  |  |  | 100 | 100 | 100 | 50 | 100 |  |  |  |  |  |  |
| Nc1nc2c(ncn2COCCO)c(=O)[nH]1 [Acyclovir, reference compound] | (80%)**** |  |  | 9600*** |  |  |  |  |  |  |  |  |  |  |  |  |  |
| Nc1nc(=S)[nH]c2c1C(c1ccc([N+](=O)[O-])cc1)c1c(O)nc(=S)[nH]c1O2 (stereo not drawn) [III, 4-amino-6-hydroxi-5-(4-nitrophenyl)-5,9-dihydro-1H-pyrano[2,3-d: 6,5-d′]dipyrimidine-2,8-dition] | 70% | 80 | 100 | 8400 | 9600 | 12000 | 70 | 90 | 100 |  |  | 70 | 100 | 0.5 | 1.0 |  |  |
| Nc1nc(=S)[nH]c2c1C(c1ccc([N+](=O)[O-])cc1)c1c(Cl)nc(=S)[nH]c1O2 (stereo not drawn) [IV, 4-chlorine-6-amino-5-(4-dinytrophenyl)-5,9-dihydro-1H-pyrano[2,3-d: 6,5-d′]dipyrimidine-2,8-dition] | 50% | 70 | 80 | 6000 | 8400 | 9600 |  |  |  |  |  | 50 | 80 | 2.0 | 1.5 |  |  |
| CN(C)c1nc(=S)[nH]c2c1C(c1ccc([N+](=O)[O-])cc1)c1c(O)nc(=S)[nH]c1O2 (stereo not drawn) [IX, 4-dimethylamine-6-hydroxi-5-(4-nitrophenyl)-5,9-dihydro-1H-pyrano[2,3-d: 6,5-d′]dipyrimidine-2,8-dition] | 50% | 70 | 80 | 6000 | 8400 | 9600 |  |  |  |  |  | 50 | 80 |  |  | 2.0 | 1.5 |
| Oc1nc(=S)[nH]c2c1C(c1ccccc1)c1c(Cl)nc(=S)[nH]c1O2 (stereo not drawn) [Ia, 4-chlorine-6-hydroxi-5-aryl-5,9-dihydro-1H-pyrano[2,3d: 6,5-d′]dipyrimidine-2,8-dition] | 60% | 80 | 90 | 7200 | 9600 | 10800 |  |  |  |  |  |  |  |  |  |  |  |
| O=[N+]([O-])c1ccc(C2c3c(Cl)nc(=S)[nH]c3Oc3[nH]c(=S)nc(Cl)c32)cc1 [Iia, 4,6-dichlorine-5-(4-nitrophenyl)-5,9-dihydro-1H-pyrano[2,3-d: 6,5-d′]dipyrimidine-2,8-dition] |  |  |  |  |  |  |  |  |  |  |  | 70 | 90 | 1.5 | 1.5 |  |  |
| Nc1nc(=S)[nH]c2c1C(c1ccc([N+](=O)[O-])cc1)c1c(N)nc(=S)[nH]c1O2 [V, 4,6-diamino-5-(4-nytrophenyl)-5,9-dihydro-1H-pyrano[2,3-d: 6,5-d′]dipyrimidine-2,8-dition] | 60% | 80 | 90 | 7200 | 9600 | 10800 | 90 | 100 | 100 |  |  | 50 | 80 | 1.0 | 1.5 |  |  |
| Nc1nc(=S)[nH]c2c1C(c1ccc([N+](=O)[O-])cc1)c1c(N)nc(=S)[nH]c1N2 [VI, 4,5-diamino-10-(4-nytrophenyl)-9,10-dihydro-1H,8H-1,3,6,8,9-pentaazaantrecen-2,7dition] | 70% | 90 | 100 | 8400 | 10800 | 12000 |  |  |  |  |  | 50 | 80 | 20 | 1.5 |  |  |
| CNc1nc(=S)[nH]c2c1C(c1ccc([N+](=O)[O-])cc1)c1c(O)nc(=S)[nH]c1O2 (stereo not drawn) [VIII, 4-methylamino-6-hydroxi-5-(4-nitrophenyl)-5,9-dihydro-1H-pyrano[2,3d: 6,5-d′]dipyrimidine-2,8-dition] |  |  |  |  |  |  |  |  |  |  |  | 70 | 90 | 2.0 | 1.5 |  |  |
| O=[N+]([O-])c1ccc(C2c3c(O)nc(=S)[nH]c3Oc3[nH]c(=S)nc(Sc4nc(O)cc(O)n4)c32)cc1 (stereo not drawn) [X, 4-(4,6-dihydroxipirimidine-2sulfanil)-6-hydroxi-5-(4-nytrophenyl)-5,9-dihydro-1H-pyrano [2,3-d: 6,5-d′]dipyrimidine-2,8-dition] | 60% | 80 | 90 | 7200 | 9600 | 10800 |  |  |  |  |  | 60 | 100 | 1.5 | 1.0 |  |  |
| O=[N+]([O-])c1ccc(C2c3cnc(=S)[nH]c3Oc3[nH]c(=S)nc(O)c32)cc1 (stereo not drawn) [XI, 6-hydroxi-5-4-(4-nitrophenyl)-5,9-dihydro-1H-pyrano[2,3-d: 6,5-d′]dipyrimidine-2,8-dition] | 50% | 70 | 80 | 6000 | 8400 | 9600 |  |  |  |  |  | 50 | 90 | 1.5 | 1.5 |  |  |
| O=[N+]([O-])c1ccc(C2c3c(O)nc(=S)[nH]c3Oc3[nH]c(=S)nc(O)c32)cc1 [XII] | 10% | 30 | 50 | 1200 | 3600 | 6000 |  |  |  |  |  | 40 | 60 |  |  |  |  |
